What was measured:
TUBO tumors = experiment: Monotherapies in HER2+ BC murine model (FIG. 8); type: in vivo, Balb/C mice; details: monotherapy
Method: (§1) Balb/C mice or C57BL/6 mice received tumor cells on day 0 followed by different treatments; two doses of Taxol given intraperitoneally (i.p.) once a week; CDK inhibitor, abemaciclib was administered by oral gavage till end point; Anti-PD-L1 was given i.p. twice a week until end point; DC1 vaccine was given intratumorally.

4T1 = experiment: Therapies in TNBC model 4T1 (FIG. 8); type: in vivo, Balb/C mice; details: 4T1 TNBC model
Method: as §1

CC(=O)O[C@H]1C(=O)[C@@]2(C)[C@H]([C@H](OC(=O)c3ccccc3)[C@]3(O)C[C@H](OC(=O)[C@H](O)[C@@H](NC(=O)c4ccccc4)c4ccccc4)C(C)=C1C3(C)C)[C@]1(OC(C)=O)CO[C@@H]1C[C@@H]2O [taxol, paclitaxel]
tumor growth (TUBO tumors): modestly delayed tumor growth
tumor growth (4T1): no effect on tumor growth
